US9833431B2, “Pharmaceutical combinations for the treatment of cancer” (Pitney Pharmaceuticals Pty Limited, priority 2013, dated 2017)
“And” between values parts separate entries of the source, which are not always exact repeats. Identical values can stand only once. “Also recorded” adds a separate entry of the source.

Legend:
[1] = test system: HUVEC, human fetal astrocytes and HOSE cells; test: SRB cytotoxicity assay, summary over early/primary passage cells; type: cell-based; details: summary of Table 3, read-out: IC50 proliferation
Experimental: (§1) All cell lines described herein were purchased from ATCC. […] Control cultures were treated with ethanol alone.

HOSE = test: SRB cytotoxicity assay, HOSE non-malignant control cells; details: for Mpl Alone, Mpl (x/X) Inhibition: 5 μM MPL, x=events, X=experiments; for cytotoxicity of MPL alone: HOSE control cells, Table 6 footnote 3
Experimental: All cell lines described herein were purchased from ATCC. Cells were seeded in 96-well plates (2,000-3,000 cells/well) and culture overnight prior to treatment with MPL. Control cultures were treated with ethanol alone.
(§2) Cells were seeded in 96-well plates (2,000-3,000 cells/well), treated with the indicated compound(s) for 72 h, fixed, washed and stained with 100 μl of 0.4% (w/v) SRB dissolved in 1% acetic acid. Unbound dye was removed by five washes with 1% acetic acid before air-drying.
Corresponding cytotoxicity of the major metabolite MPL-SO2 has also been tested where indicated. […] HUVEC, human fetal astrocytes and HOSE cells are non-transformed, non-immortalized and non-malignant, freshly isolated/low passage number cell populations, from apparently healthy non-diseased tissue. These healthy cell populations were included in the experimental series as controls for non-specific toxicity. Both MPL and MPL-SO2 were suspended in ethanol and applied in final concentrations of 0.5 to 1% ethanol in the respective culture media.
(§3) In order to evaluate the effect of MPL on the in vitro efficacy of an established drug was evaluated using cell viability and cell proliferation assays. Cell viability was conducted according to standard Trypan Blue method. Cell proliferation was assessed using the sulforhodamine B (SRB) assay. For viability experiments, cells were seeded in 6 well plates, whereas for proliferation assays cells were grown in 96 well plates. Following over-night attachment, cells were treated with the intended drug at various concentrations either alone or in combination with monepantel (MPL) for 72 h. Parallel to this, cells treated with MPL alone were also deployed for comparative purposes. Following incubation for 72 h in a standard cell culture incubator, effect of mono and combined drug treatments on cell viability and/or cell proliferation was assessed through using Trypan Blue or SRB assays respectively.
For viability assay, at the end of treatment period, cells were washed with PBS, trypsinized and counted using Trypan blue and hemocytometer. For the SRB assay cells were fixed, washed and stained with 100 μl of 0.4% (w/v) SRB dissolved in 1% acetic acid. Unbound dye was removed by five washes with 1% acetic acid before air drying. […] Monepantel (gift by Novartis, Basel, Switzerland) was dissolved in 100% ethanol and then diluted with the cell culture media. Other agents employed in the study were purchased either from Sigma Australia or Sapphire Australia, prepared and preserved for cell culture use according to supplier instructions.
(§4) MPL (5 μM) and combination drugs were applied for 72 h unless indicated.

[2] = test system: immortalized cell lines and the CFPAC-1 and SKOV-3 cell lines; test: SRB cytotoxicity assay, summary over immortalized lines; type: cell-based; details: all immortalized cell lines and CFPAC-1 and SKOV-3; summary of Table 3; read-out: IC50 proliferation
Experimental: as §1

LNCaP = test: SRB cytotoxicity assay, LNCaP cells; type: cell-based, human; details: 72 h
Experimental: as §1

SW-872 (Liposarcoma) = test: SRB cytotoxicity assay, SW-872 cells; type: cell-based; details: Homo sapiens, SW872
Experimental: as §1

CFPAC-1 = test: SRB cytotoxicity assay, CFPAC-1 cells
Experimental: (§5) Cells were seeded in 96-well plates (2,000-3,000 cells/well) and culture overnight prior to treatment with MPL. Control cultures were treated with ethanol alone.
(§6) Cytotoxicity was assessed using the sulforhodamine B (SRB) assay and reported as half maximal inhibitory concentration (IC50; Table 3). Cells were seeded in 96-well plates (2,000-3,000 cells/well), treated with the indicated compound(s) for 72 h, fixed, washed and stained with 100 μl of 0.4% (w/v) SRB dissolved in 1% acetic acid. Unbound dye was removed by five washes with 1% acetic acid before air-drying.
as §4

3T3 (fibroblast) = test: SRB cytotoxicity assay, 3T3 cells; type: cell-based; details: immortalised, mesenchymal, 72 h
Experimental: as §1

SKOV-1 = test: SRB cytotoxicity assay, SKOV-1 cells
Experimental: as §2, §4

Hep3B = test: SRB cytotoxicity assay, Hep3B cells; type: cell-based, human; details: for cytotoxic effect of MPL alone: Hep3B cells
Experimental: as §1

OVCAR-3 = test: SRB cytotoxicity / proliferation assay, OVCAR-3 cells; details: for significant cytotoxic effect of MPL alone: OVCAR-3 cells
Experimental: as §5, §6, §3
(§7) For viability assay, at the end of treatment period, cells were washed with PBS, trypsinized and counted using Trypan blue and hemocytometer. For the SRB assay cells were fixed, washed and stained with 100 μl of 0.4% (w/v) SRB dissolved in 1% acetic acid. Unbound dye was removed by five washes with 1% acetic acid before air drying. […] Monepantel (gift by Novartis, Basel, Switzerland) was dissolved in 100% ethanol and then diluted with the cell culture media.
as §4

HT-29 = test: cells; type: cell-based
Experimental: as §1

HT-29 5m11 = test: SRB cytotoxicity assay, HT-29 5m11 cells; type: cell-based; details: Homo sapiens, read-out: LC50 (the source's name)
Experimental: as §1

IGROV-1 = test: SRB cytotoxicity assay, IGROV-1 cells; type: cell-based; details: Homo sapiens, IGROV-1, malignant, ovarian, 72 h
Experimental: as §1

AsPC1 = test: SRB cytotoxicity assay, AsPC1 cells; type: cell-based, human; details: 72 h
Experimental: as §1

[3] = dosage of 1000 mg of MPL per kg of body weight per 24 hours; mammals; cited from earlier work
LN-18 = test: SRB cytotoxicity assay, LN-18 cells; type: cell-based, human; details: 72 h
Experimental: as §1

DU-145 = test: SRB cytotoxicity assay, DU-145 cells; type: cell-based; details: Homo sapiens, DU-145, malignant, prostatic, 72 h
Experimental: as §1

[4] = in vivo; cited from earlier work
PC-3 = test: SRB cytotoxicity assay, PC-3 cells; type: cell-based; details: Homo sapiens, PC-3, malignant, prostatic, 72 h
Experimental: as §1

1A9 = test: SRB cytotoxicity assay, 1A9 cells; type: cell-based; details: Homo sapiens, 1A9, malignant, ovarian, 72 h
Experimental: as §1

PET = test: SRB cytotoxicity assay, PET cells; type: cell-based, human; details: 72 h
Experimental: as §1

MDA-MB-231 = test: SRB cytotoxicity assay, MDA-MB-231 cells; type: cell-based; details: MDA-MB-231, malignant, breast
Experimental: as §1

REN = test: SRB cytotoxicity assay, REN cells; type: cell-based, human; details: 72 h
Experimental: as §1

A2780 = test: SRB cytotoxicity / proliferation assay, A2780 cells; details: for Mpl Alone, Mpl (x/X) Inhibition: A2780 Ovarian, 72 h, x=events, X=experiments
Experimental: as §5, §2
Cell viability was conducted according to standard Trypan Blue method. Cell proliferation was assessed using the sulforhodamine B (SRB) assay. For viability experiments, cells were seeded in 6 well plates, whereas for proliferation assays cells were grown in 96 well plates. Following over-night attachment, cells were treated with the intended drug at various concentrations either alone or in combination with monepantel (MPL) for 72 h. Parallel to this, cells treated with MPL alone were also deployed for comparative purposes. Following incubation for 72 h in a standard cell culture incubator, effect of mono and combined drug treatments on cell viability and/or cell proliferation was assessed through using Trypan Blue or SRB assays respectively.
as §7

HEK = test: SRB cytotoxicity assay, HEK cells; type: cell-based; details: Homo sapiens, HEK293, immortalised, nephritic, 72 h
Experimental: as §1

HT-1080 (Fibrosarcoma) = test: SRB cytotoxicity assay, HT-1080 cells; type: cell-based
Experimental: as §1

Human Fetal Astrocytes = test: SRB cytotoxicity assay, human fetal astrocytes; type: cell-based; details: Astrocyte, non-malignant, glial, 72 h
Experimental: as §1

YOU = test: SRB cytotoxicity assay, YOU cells; type: cell-based, human; details: 72 h
Experimental: as §1

T47-D = test: SRB cytotoxicity assay, T47-D cells; type: cell-based; details: Homo sapiens, T47D, malignant, breast, 72 h
Experimental: as §1

In the case of C[C@](C#N)(COc1cc(C#N)ccc1C(F)(F)F)NC(=O)c1ccc(SC(F)(F)F)cc1 [MPL, N-[(1S)-1-cyano-2-(5-cyano-2-trifluoromethyl-phenoxy)-1-methyl-ethyl]-4-trifluoromethylsulfanyl-benzamide], the IC50 [1] is reported as over 85 µM, the “Mpl Alone, Mpl (x/X) Inhibition” value (HOSE; HOSE (Ovarian) control, Table 6) is reported as 2/9^3 and the “Mpl Alone, Mpl (x/X) Inhibition” value (HOSE; HOSE (Ovarian), 72 h, Table 7) is reported as “(0/4)”. For the same molecule, the “cytotoxic effect of MPL alone” value (HOSE; HOSE cells, FIG. 22 Rows 2 (fluorouracil) and 5 (paclitaxel)) was “small but significant cytotoxic effect”, the “significant cytotoxic effect of MPL alone” value (HOSE; HOSE cells, MPL 2.5 μM, 1/1 experiments) was “did not induce a significant cytotoxic effect” and the “significant cytotoxic effect of MPL alone” value (HOSE; HOSE cells, MPL 5 μM, 3/3 experiments) was “did not induce a significant cytotoxic effect”. For the same molecule, the “cytotoxicity of MPL alone” value (HOSE; flutamide experiment) was 3%, the “cytotoxicity of MPL alone” value (HOSE; oxaliplatin experiment) was 5% and the IC50 (HOSE; Homo sapiens, 72 h) was over 100 µM. For the same molecule, the IC50 [2] was 12 to 35 µM, the IC50 (LNCaP; Homo sapiens, LNCaP, malignant, prostatic, SRB) was 7.3 µM and the “Mpl Alone, Mpl (x/X) Inhibition” value (LNCaP; LNCAP Prostate, 5 μM MPL, x=events, X=experiments) was 1/1. The IC50 (SW-872 (Liposarcoma); SW-872 (Liposarcoma), malignant, mesenchymal, SRB, 72 h) was 14.7 µM, the EC50 (SW-872 (Liposarcoma); SW-872 cells) was 14.7 µM and the “Mpl Alone, Mpl (x/X) Inhibition” value (CFPAC-1; CFPAC-1 Pancreatoma, 5 μM MPL, 72 h, x=events, X=experiments) was 1/10. The “experiments with significant cytotoxic effect of MPL alone” value (CFPAC-1; CFPAC-1 cells, MPL (5 μM)) was 1 of 10, the “experiments with cytotoxic effect of MPL alone” value (CFPAC-1; CFPAC-1 cells, MPL (10 μM), 72 h, data not shown) was 4 of 9 and the IC50 (CFPAC-1; Homo sapiens, CFPAC-1, 72 h) was 30.1 ± 5.5 µM. For the same molecule, the IC50 (3T3 (fibroblast)) was 12.4 ± 0.4 µM, the “A) Single treatment, one symbol per experiment” value (SKOV-1; SKOV-1, MPL (5 μM), 72 h) was “✓✓✓” and the “significant cytotoxic effect of MPL alone” value (SKOV-1; SKOV-1 cells, MPL 5 μM, 3/3 experiments) was “significant cytotoxic effect”. For the same molecule, the “Mpl Alone, Mpl (x/X) Inhibition” value (Hep3B; Hep3B Hepatoma, 5 μM MPL, 48 h, x=events, X=experiments) was 12/12, the “cytotoxic effect of MPL alone” value (Hep3B; MPL 2.5 μM, 48 h) was “does not display a cytotoxic effect; also recorded: does not exert a cytotoxic effect” and the “cytotoxic effect of MPL alone” value (Hep3B; MPL 5 μM, 48 h) was “significant cytotoxic effect and potent effect and 12 of 12”. The IC50 (Hep3B; Homo sapiens, Hep3B, malignant, hepatic, SRB, 72 h) was 15.8 µM, the IC50 (OVCAR-3; Homo sapiens, OVCAR-3, 72 h) was 6.3 ± 0.8 µM and the “Mpl Alone, Mpl (x/X) Inhibition” value (OVCAR-3; OVCAR-3, 5 μM MPL, 72 h, x=events, X=experiments, Table 7) was “(3/3)”. For the same molecule, the “Mpl Alone, Mpl (x/X) Inhibition” value (OVCAR-3; OVCAR-3, 5 or 10 μM MPL, 72 h, Table 8 lower panel, same MPL control for serotonin and wortmannin) was “(2/2)^2”, the “Mpl Alone, Mpl (x/X) Inhibition” value (OVCAR-3; OVCAR-3, 5 or 10 μM MPL, 72 h, Table 8 upper panel, x=events, X=experiments) was “(5/5)” and the “A) Single treatment, one symbol per experiment” value (OVCAR-3; OVCAR-3, MPL (5 μM), 72 h) was “✓✓✓✓✓✓”. The “Mpl Alone, Mpl (x/X) Inhibition” value (OVCAR-3; OVCAR-3 Ovarian, 5 μM MPL, 72 h, x=events, X=experiments, Table 6) was 4/4, the “significant cytotoxic effect of MPL alone” value (OVCAR-3; MPL 2.5 μM, 1/1 experiments) was “but not 2.5 μM alone” and the “significant cytotoxic effect of MPL alone” value (OVCAR-3; MPL 5 μM, 6/6 experiments) was “significant cytotoxic effect”. The “significant cytotoxic effect of MPL alone” value (HT-29; HT29 cells, MPL (5 μM), two experiments) was “no significant cytotoxic effect”, the CC50 (HT-29; Homo sapiens, HT-29, HT29 cells, read-out: LC50 (the source's name)) was 5.9 µM and the IC50 (HT-29; Homo sapiens, HT-29, malignant, colorectal, SRB, 72 h) was 5.9 ± 0.2 µM. The CC50 (HT-29 5m11) was 10.4 µM, the IC50 (IGROV-1) was 4.4 ± 0.3 µM and the “Mpl Alone, Mpl (x/X) Inhibition” value (AsPC1; AsPC-1 Pancreatoma, 5 μM MPL, x=events, X=experiments) was 1/2. The IC50 (AsPC1; Homo sapiens, AsPC1, malignant, pancreatic, SRB) was 7.2 ± 0.3 µM, the clinical tolerance [3] was “well tolerated” and the IC50 (LN-18; Homo sapiens, LN-18, malignant, glial, SRB) was 9.4 ± 0.8 µM. For the same molecule, the “Mpl Alone, Mpl (x/X) Inhibition” value (LN-18; LN18 Glioblastoma, 5 μM MPL, x=number of events, X=number of experiments) was 2/2, the IC50 (DU-145) was 23 µM and the single-dose toxicity [4] was > 2000 mg per kg of body weight. The IC50 (PC-3) was 21 µM, the IC50 (1A9) was 2.5 ± 0.5 µM and the IC50 (PET; Homo sapiens, PET, malignant, mesothelial, SRB) was 26 µM. The “Mpl Alone, Mpl (x/X) Inhibition” value (PET; PET Mesothelioma, 5 μM MPL, x=events, X=experiments) was 2/2, the IC50 (MDA-MB-231; Homo sapiens, MDA-MB-231, 72 h) was 23.8 µM and the IC50 (MDA-MB-231; 72 h) was 25.8 ± 0.2 µM. For the same molecule, the IC50 (REN; Homo sapiens, REN, malignant, mesothelial, SRB) was 2.5 ± 0.2 µM, the “Mpl Alone, Mpl (x/X) Inhibition” value (REN; REN Mesothelioma, 5 μM MPL, x=events, X=experiments) was 2/2 and the “Mpl Alone, Mpl (x/X) Inhibition” value (A2780; 5 μM MPL, Table 6) was 6/6^2. For the same molecule, the “Mpl Alone, Mpl (x/X) Inhibition” value (A2780; 5 μM MPL, Table 7) was “(4/4)”, the “Mpl Alone, Mpl (x/X) Inhibition” value (A2780; 5 or 10 μM MPL, Table 8 lower panel) was “(5/5)^” and the “Mpl Alone, Mpl (x/X) Inhibition” value (A2780; 5 or 10 μM MPL, Table 8 upper panel) was “(3/3)”. The IC50 (A2780; Homo sapiens, A2780, 72 h) was 10 ± 3.8 µM, the IC50 (HEK) was 34.6 ± 0.9 µM and the “Mpl Alone, Mpl (x/X) Inhibition” value (HT-1080 (Fibrosarcoma); HT180 Fibrosarcoma, 5 or 10 μM MPL, 72 h, x=events, X=experiments) was “(1/1)”. For the same molecule, the IC50 (HT-1080 (Fibrosarcoma); Homo sapiens, HT-1080 (Fibrosarcoma), malignant, mesenchymal, SRB, 72 h) was 17.2 µM, the EC50 (HT-1080 (Fibrosarcoma); Homo sapiens, HT-1080 cells) was 17.2 µM and the IC50 (Human Fetal Astrocytes) was 85.6 ± 2.7 µM. The IC50 (YOU; Homo sapiens, YOU, malignant, mesothelial, SRB) was 23 µM, the “Mpl Alone, Mpl (x/X) Inhibition” value (YOU; YOU Mesothelioma, 5 μM MPL, x=events, X=experiments) was 2/2 and the IC50 (T47-D) was 5.3 µM.
